Assay results reported in patent US7601728B2, “Bicyclic pyrrole derivatives” (Dainippon Sumitomo Pharma Co., Ltd., priority 2004, dated 2009).
Counter-ions that a name gives are not always drawn.

target: T1, Human DPP IV (Homo sapiens, UniProt P27487); assay: In Vitro DPP-IV Inhibitory Effect Measurement Test; type: biochemical; conditions: human serum containing DPP-IV enzyme; substrate Glycyl-L-Proline 4-Methyl-Coumaryl-7-Amide 10 to 100 μM; room temperature; fluorescence 360/460 nm; read-out: Human DPP IV inhibiting activity IC50
T1 construct: Human serum containing DPP-IV enzyme was diluted finally 9- to 20-fold with assay buffer; from tissue; host or cells: human serum
Method: In Vitro DPP-IV Inhibitory Effect Measurement Test
Human serum containing DPP-IV enzyme was diluted finally 9- to 20-fold with assay buffer and added to a microassay plate. Each of solutions of each test compound having various concentrations was added thereto, followed by adding thereto a substrate (Glycyl-L-Proline 4-Methyl-Coumaryl-7-Amide, Peptide Laboratories Co., Ltd.) to a final concentration of 10 to 100 μM, and the reaction was carried out at room temperature. Acetic acid was added thereto to a final concentration of 0.5% to terminate the reaction, and the intensity of fluorescence at an excitation wavelength of 360 nm and a measuring wavelength of 460 nm was measured by the use of a fluorescent plate reader.

T1 sequence (P27487 39-766 limits assumed): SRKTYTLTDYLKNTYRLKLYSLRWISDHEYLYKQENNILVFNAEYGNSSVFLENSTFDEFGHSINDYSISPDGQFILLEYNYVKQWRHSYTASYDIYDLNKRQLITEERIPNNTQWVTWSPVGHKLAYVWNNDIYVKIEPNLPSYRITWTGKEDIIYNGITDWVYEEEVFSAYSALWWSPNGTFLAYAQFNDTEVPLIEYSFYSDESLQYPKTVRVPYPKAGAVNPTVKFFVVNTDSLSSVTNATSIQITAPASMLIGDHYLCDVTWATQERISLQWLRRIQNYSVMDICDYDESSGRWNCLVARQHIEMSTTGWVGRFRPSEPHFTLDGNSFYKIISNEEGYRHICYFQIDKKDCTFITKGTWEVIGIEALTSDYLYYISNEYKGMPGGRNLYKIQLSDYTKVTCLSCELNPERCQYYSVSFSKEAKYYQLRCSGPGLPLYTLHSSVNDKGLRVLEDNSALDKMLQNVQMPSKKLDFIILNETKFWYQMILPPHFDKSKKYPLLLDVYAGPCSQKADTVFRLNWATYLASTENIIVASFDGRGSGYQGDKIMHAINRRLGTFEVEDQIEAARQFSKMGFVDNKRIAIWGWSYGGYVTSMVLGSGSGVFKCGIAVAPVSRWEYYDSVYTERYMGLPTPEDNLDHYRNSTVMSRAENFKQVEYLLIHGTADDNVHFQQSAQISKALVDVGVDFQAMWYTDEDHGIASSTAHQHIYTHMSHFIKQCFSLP

Structure (SMILES) | IC50 [nM]
COc1ccc(-c2c(N3CCC[C@@H](N)C3)n(Cc3ccccc3Cl)c3c(=O)n(C)c(=O)n(C)c23)cc1 [Example 62] | 56
Cn1c(O)nc2c(C#N)c(N3CCC[C@@H](N)C3)n(Cc3ccccc3Cl)c2c1=O [Example 3, 6-[(3R)-3-Aminopiperidin-1-yl]-5-(2-chlorobenzyl)-2-hydroxy-3-methyl-4-oxo-4,5-dihydro-3H-pyrrolo[3,2-d]pyrimidine-7-carbonitrile hydrochloride] | 26
Cn1cnc2c(C(=O)N3CCOCC3)c(N3CCC[C@@H](N)C3)n(Cc3cc(F)ccc3Cl)c2c1=O [Example 66] | 5.5
Cn1c(=O)n(Cc2cc3ccccc3cn2)c(=O)c2c1cc(N1CCC[C@@H](N)C1)n2Cc1cc(F)ccc1Cl [Example 18] | 12
Cn1c(=O)c2c(c(C(=O)NC3CCC3)c(N3CCC[C@@H](N)C3)n2Cc2cc(F)ccc2Cl)n(C)c1=O [Example 40] | 6.8
Cn1c(=O)c2c(c(C(=O)N3CCCC3)c(N3CCC[C@@H](N)C3)n2Cc2ccccc2Cl)n(C)c1=O [Example 27] | 9.8
Cn1c(=O)c2c(c(C#N)c(N3CCC[C@@H](N)C3)n2Cc2ccccc2Cl)n(C)c1=O [Example 2, 6-[(3R)-3-Aminopiperidin-1-yl]-5-(2-chlorobenzyl)-1,3-dimethyl-2,4-dioxo-2,3,4,5-tetrahydro-1H-pyrrolo[3,2-d]pyrimidine-7-carbonitrile hydrochloride] | 21
Cn1c(Oc2ccccc2C(N)=O)nc2c(C#N)c(N3CCC[C@@H](N)C3)n(Cc3ccccc3Cl)c2c1=O [Example 7, 2-{[6-(3-Aminopiperidin-1-yl)-5-(2-chlorobenzyl)-7-cyano-3-methyl-4-oxo-4,5-dihydro-3H-pyrrolo[3,2-d]pyrimidin-2-yl]oxy}benzamide hydrochloride] | 60
Cn1c(=O)n(CC(=O)c2ccccc2)c(=O)c2c1cc(N1CCC[C@@H](N)C1)n2Cc1cc(F)ccc1Cl [Example 19] | 7.1
Cn1c(=O)c2c(c(C(=O)N3CCC(O)CC3)c(N3CCC[C@@H](N)C3)n2Cc2ccccc2Cl)n(C)c1=O [Example 33] | 12
CC(=O)c1c(N2CCC[C@@H](N)C2)n(Cc2ccccc2Cl)c2c(=O)n(C)c(=O)n(C)c12 [Example 61] | 85
Cn1c(=O)c2c(cc(N3CCC[C@@H](N)C3)n2Cc2ccccc2Cl)n(C)c1=O [Example 5, 6-(3-Aminopiperidin-1-yl)-5-(2-chlorobenzyl)-1,3-dimethyl-1H-pyrrolo[3,2-d]pyrimidine-2,4(3H,5H)-dione hydrochloride] | 15
Cn1c(=O)[nH]c(=O)c2c1cc(N1CCC[C@@H](N)C1)n2Cc1cc(F)ccc1Cl [Example 20] | 4.3
CC#CCn1c(N2CCC[C@@H](N)C2)cc2c1c(=O)n(C)c(=O)n2C [Example 14] | 55
CCOC(=O)c1c(N)c(C#N)c(N2CCC[C@@H](N)C2)n1Cc1ccccc1Cl [Example 72, Ethyl 3-amino-5-[(3R)-3-aminopiperidin-1-yl]-1-(2-chlorobenzyl)-4-cyano-1H-pyrrole-2-carboxylate hydrochloride] | 1200
CCOc1cccc(Oc2nc3c(C#N)c(N4CCC[C@@H](N)C4)n(Cc4ccccc4Cl)c3c(=O)n2C)c1 [Example 1, 6-[(3R)-3-Aminopiperidin-1-yl]-5-(2-chlorobenzyl)-2-(3-ethoxyphenoxy)-3-methyl-4-oxo-4,5-dihydro-3H-pyrrolo[3,2-d]pyrimidine-7-carbonitrile hydrochloride] | 76
Cn1cnc2cc(N3CCC[C@@H](N)C3)n(Cc3cc(F)ccc3Cl)c2c1=O [Example 64] | 13
Cn1c(S(C)(=O)=O)nc2c(C#N)c(N3CCC[C@@H](N)C3)n(Cc3ccccc3Cl)c2c1=O [Example 4, 6-[(3R)-3-Aminopiperidin-1-yl]-5-(2-chlorobenzyl)-3-methyl-2-(methylsulfonyl)-4-oxo-4,5-dihydro-3H-pyrrolo[3,2-d]pyrimidine-7-carbonitrile hydrochloride] | 28
Cn1c(=O)c2c(cc(N3CCC[C@@H](N)C3)n2Cc2ccccc2C#N)n(C)c1=O [Example 8] | 7.4

The remaining lines, values ahead:

IC50 [nM] | Structure (SMILES)
7.6 | CN(C)C(=O)c1c(N2CCC[C@@H](N)C2)n(Cc2ccccc2Cl)c2c(=O)n(C)c(=O)n(C)c12 [Example 25]
4.1 | COCCNC(=O)c1c(N2CCC[C@@H](N)C2)n(Cc2cc(F)ccc2Cl)c2c(=O)n(C)c(=O)n(C)c12 [Example 41]
31 | COCc1c(N2CCC[C@@H](N)C2)n(Cc2ccccc2Cl)c2c(=O)n(C)c(=O)n(C)c12 [Example 56]
3800 | Cn1c(=O)c2c(c(C#N)c(N3CCC[C@H](N)C3)n2Cc2cc(F)ccc2Cl)n(C)c1=O [Example 70, 6-[(3S)-3-Aminopiperidin-1-yl]-5-(2-chloro-5-fluorobenzyl)-1,3-dimethyl-2,4-dioxo-2,3,4,5-tetrahydro-1H-pyrrolo[3,2-d]pyrimidine-7-carbonitrile hydrochloride]
9 | Cn1c(=O)c2c(c(C(=O)N3CCOCC3)c(N3CCC[C@@H](N)C3)n2Cc2cc(F)ccc2Cl)n(C)c1=O [Example 44]
5.7 | Cn1c(=O)c2c(c(C(=O)NCC(F)(F)F)c(N3CCC[C@@H](N)C3)n2Cc2cc(F)ccc2Cl)n(C)c1=O [Example 42]
44 | CCOC(=O)c1c(N2CCC[C@@H](N)C2)n(Cc2ccccc2Cl)c2c(=O)n(C)c(=O)n(C)c12 [Example 24]
7.5 | Cn1c(=O)c2c(c(C(=O)NCC(O)CO)c(N3CCC[C@@H](N)C3)n2Cc2ccccc2Cl)n(C)c1=O (stereo partly shown) [Example 32]
1.9 | Cn1c(=O)c2c(cc(N3CCC[C@@H](N)C3)n2Cc2cc(F)ccc2Cl)n(C)c1=O [Example 6, 6-(3-Aminopiperidin-1-yl)-5-(2-chloro-5-fluorobenzyl)-1,3-dimethyl-1H-pyrrolo[3,2-d]pyrimidine-2,4(3H,5H)-dione hydrochloride]
